The text below walks through data of patent EP4527828A1, “BIPHENYL COMPOUND, PHARMACEUTICAL COMPOSITION, METHOD FOR PREPARING SAME, AND USE THEREOF” (Longivitron (Suzhou) Biotechnology Co., Ltd, priority 2022, dated 2023).

Read-outs that look alike come from different tables or passages of the source.

For one test, the target named is T1, LAG3/MHCII (Homo sapiens, UniProt P18627).
T1 sequence (P18627 23-450 limits assumed): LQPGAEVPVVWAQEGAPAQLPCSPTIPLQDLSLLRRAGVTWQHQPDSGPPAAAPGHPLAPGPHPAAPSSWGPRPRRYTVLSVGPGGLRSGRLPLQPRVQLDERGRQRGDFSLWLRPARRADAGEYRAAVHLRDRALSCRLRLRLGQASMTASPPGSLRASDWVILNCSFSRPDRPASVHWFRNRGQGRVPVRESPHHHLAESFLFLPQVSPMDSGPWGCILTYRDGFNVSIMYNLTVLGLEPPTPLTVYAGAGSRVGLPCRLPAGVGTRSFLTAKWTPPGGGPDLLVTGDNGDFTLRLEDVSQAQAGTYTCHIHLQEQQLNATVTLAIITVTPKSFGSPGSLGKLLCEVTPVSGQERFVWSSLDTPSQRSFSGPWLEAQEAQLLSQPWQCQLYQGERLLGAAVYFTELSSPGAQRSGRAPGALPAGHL
Briefly: HTRF binding inhibition of LAG3 and its ligand MHCII. To be noted: binding inhibition LAG3/MHCII. The method, then:
HTRF (Homogeneous time-resolved fluorescence) is based on two techniques, fluorescence resonance energy transfer (FRET) and time-resolved fluorescence (TRF). The detection was carried out using a 384-well plate. 2 µL of a compound to be tested with an appropriate concentration was collected, 4 µL of Tag1-LAG3 protein (with a final concentration of 10 nmol·L^-1) was added, 4 µL of Tag2-MHCII (with a final concentration of 20 nmol·L^-1) was added, and the plate was incubated at room temperature for 15 min. 10 µL of Anti-Tag1-Tb working solution (prepared by adding 25 µL of Anti-Tag1-Tab mother solution to 2475 µL of dilution buffer) was added, 10 µL of Anti-Tag2-XL665 working solution (prepared by adding 25 µL of Tag2-XL665 mother solution to 2475 µL of dilution buffer) was added, and the plate was sealed with a film and incubated at room temperature for 1 h. The detection was carried out using a Perkin Elma Envision instrument.
In general terms: In TR-FRET formats the signal depends on donor and acceptor labels being close together.

For another test, the target named is T2, Human LAG3 protein (Homo sapiens, UniProt P18627).
T2 sequence (P18627 23-525): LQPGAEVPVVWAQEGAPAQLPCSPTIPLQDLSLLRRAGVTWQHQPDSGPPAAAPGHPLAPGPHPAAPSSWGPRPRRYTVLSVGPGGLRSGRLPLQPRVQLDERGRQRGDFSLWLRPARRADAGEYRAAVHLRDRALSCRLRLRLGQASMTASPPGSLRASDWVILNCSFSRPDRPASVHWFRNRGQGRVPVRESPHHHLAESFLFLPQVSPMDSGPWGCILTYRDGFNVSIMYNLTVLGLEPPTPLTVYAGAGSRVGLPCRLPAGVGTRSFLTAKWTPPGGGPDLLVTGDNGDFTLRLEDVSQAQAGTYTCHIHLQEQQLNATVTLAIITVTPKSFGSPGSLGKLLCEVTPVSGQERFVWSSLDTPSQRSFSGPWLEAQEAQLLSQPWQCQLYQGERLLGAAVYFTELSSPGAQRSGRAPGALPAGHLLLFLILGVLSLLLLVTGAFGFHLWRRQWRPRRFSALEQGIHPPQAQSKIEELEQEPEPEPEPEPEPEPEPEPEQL
The test is described as follows: SPR interaction assay, CM5 chip amino coupling, human LAG3. Type of test: binding. To be noted: for Rmax / Kd / Note / kon / koff: ligand Human LAG3 protein; for Kd: Compound 9 fitted in steady-state mode; for Note: bound or not bound; for kon: read-out: Ka; for koff: read-out: Kd. The text has this: (§1) A surface plasmon is an electromagnetic wave on a metal surface and is generated by the interaction of photons and electrons which are freely vibrated. Surface plasmon resonance (SPR) is an optical phenomenon that occurs on the surfaces of two media, and such a phenomenon can be induced by photons or electrons. When light enters an optically thinner medium from an optically denser medium, the phenomenon of total reflection occurs, and an evanescent wave is generated and enters the optically thinner medium. When the totally reflected evanescent wave meets the plasmon wave on the metal surface, resonance may occur, the energy of the reflected light decreases, and a resonance peak occurs on the energy spectrum of the reflected light. Such a resonance is called surface plasmon resonance. The angle of incidence causing the surface plasmon resonance is called an SPR angle. An SPR biosensor provides a sensitive, non-labeled detection technique for monitoring intermolecular interactions in real time. The sensor detects the change in the SPR angle, and the SPR is related to the refractive index of the metal surface. When an analyte binds to the chip surface, the refractive index of the chip surface changes, thus causing the change in the SPR angle. This is the basic principle for the SPR biosensor to detect intermolecular interactions in real time. During the interaction analysis, the change in the SPR angle is recorded on the sensorgram in real time.
Through the information query, the theoretical isoelectric point of the LAG3 protein is about 9.82, and the amino coupling method was contemplated to immobilize the protein. Since the main ligands of the LAG3 protein are FGL1 and MHCII proteins, after the LAG3 protein was coupled, the FGL1 protein sampling method was used to verify the protein activity.
(§2) Protein coupling buffer solution: 1.05× PBS-P+; 1.02× PBS-P+
(§3) Interaction buffer solution: 1.0× PBS-P+, 5% DMSO; 1.0× PBS-P+, 2% DMSO
In this experiment, by using the CM5 chip amino coupling method, the human LAG3 protein was immobilized to the Fc2 or Fc3 channel, and the mouse LAG3 protein was immobilized to the Fc3 or Fc4 channel.
LAG3 protein coupling conditions were as follows: the concentration was about 25 µg/mL, the system was sodium acetate solution with a pH of 5.5, the chip activation time was 420 s, and the blocking time was 420 s.
LAG3 protein coupling conditions were as follows: the concentration was about 50 µg/mL, the system was sodium acetate solution with a pH of 4.5, the chip activation time was 420 s, and the blocking time was 420 s.

Another test concerns the target T3, Human FGL1 protein (Homo sapiens, UniProt Q08830).
T3 sequence (Q08830 23-312): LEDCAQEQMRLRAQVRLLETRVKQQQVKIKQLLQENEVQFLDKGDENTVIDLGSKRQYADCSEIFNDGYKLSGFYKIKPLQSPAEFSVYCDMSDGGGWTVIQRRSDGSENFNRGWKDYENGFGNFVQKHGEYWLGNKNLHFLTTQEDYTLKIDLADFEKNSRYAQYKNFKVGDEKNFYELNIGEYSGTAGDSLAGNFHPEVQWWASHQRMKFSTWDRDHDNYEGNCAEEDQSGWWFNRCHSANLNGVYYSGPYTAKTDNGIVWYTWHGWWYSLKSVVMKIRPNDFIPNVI
The test is described as follows: SPR interaction assay, human FGL1. The class given is binding. Particulars: for Note: bound or not bound; for kon: read-out: Ka; for koff: read-out: Kd.
Text: as §1, §2, §3

Where [1] appears, read: SPR, ligand FGL1 protein, read-out: KD.
The mark [2] stands for this setting: text summary of Table 4, read-out: affinities with the new ligand FGL1 of LAG3.

In general, IC50 refers to the concentration needed to halve the response being measured. A higher IC50 goes with lower potency. `CCCCCCOc1ccc2cc1-c1cc(ccc1OCCCCCC)C(=O)CCCCCC2=O` [Compound 4] showed a concentration for half-maximal inhibition (IC50) at LAG3/MHCII of 18 µM. On Human LAG3 protein, the “interaction with the human LAG3 protein” value was “interacts with the human LAG3 protein”, the Rmax came to 124.7 RU, the Kd is 52.9 µM and the Note result is reported as “Bound”. In addition, at Human LAG3 protein, the kon is 418 M⁻¹ s⁻¹ and the koff stood at 0.0221 s⁻¹. For the same molecule, the “interaction with the human FGL1 protein” value on Human FGL1 protein (SPR) is on record as “interacts with the human FGL1 protein”. In addition, on Human FGL1 protein (SPR, ligand FGL1 protein), the Rmax worked out at 14.02 RU, the Note entry is “Bound”, the kon worked out at 2130 M⁻¹ s⁻¹ and the koff stood at 0.0504 s⁻¹. Further, the Kd on Human FGL1 protein (setting [1]) was 23.2 µM. For the same molecule, the Kd on Human FGL1 protein (setting [2]) is roughly 10 µM.
In the case of `CCCCCCOc1ccc(C(=O)O)cc1-c1cc(C(=O)NCCCCNC(=O)C(F)(F)F)ccc1OCCCCCC` [Compound 8], on LAG3/MHCII, the IC50 is 8.34 µM. Also, at Human LAG3 protein, the “interaction with the human LAG3 protein” value is reported as “interacts with the human LAG3 protein”, the Rmax came to 8.639 RU, the Kd was determined as 7.76 µM and the Note entry was “Bound”. Besides, at Human LAG3 protein, the kon is 446 M⁻¹ s⁻¹ and the koff was found to be 0.00346 s⁻¹. In addition, the “interaction with the human FGL1 protein” value at Human FGL1 protein (SPR) is reported as “interacts with the human FGL1 protein”. For the same molecule, on Human FGL1 protein (SPR, ligand FGL1 protein), the Rmax worked out at 28.91 RU, the Note entry is “Bound”, the kon turned out to be 1470 M⁻¹ s⁻¹ and the koff was 0.0231 s⁻¹. Further, on Human FGL1 protein (setting [1]), the Kd was 15.7 µM. For the same molecule, on Human FGL1 protein (setting [2]), the Kd was roughly 10 µM.
